Reference: ChEMBL document CHEMBL1614632, “Trend analysis of a database of intravenous pharmacokinetic parameters in humans for 670 drug compounds” (Drug Metab Dispos, 2008)

Legend:
[1] = clinical; details: human, in vivo, iv, Vdss
[2] = clinical; details: human, in vivo, iv, CL
[3] = clinical; details: human, in vivo, iv
[4] = clinical; details: human, in vivo, iv; remark: listed apart in the source
[5] = clinical; details: human, in vivo, iv, t1/2
[6] = human, in vivo, iv
[7] = human, in vivo, iv; remark: listed apart in the source

Row | Structure (SMILES) | Vd [1] [L/kg] | clearance [2] [mL/min/kg] | fraction unbound [3] | MRT [4] [h] | half-life [5] [min] | t1/2 [6] [h] | Vdss [7] [L/kg]
1 | Cc1ccccc1OCC(O)CNCCOc1ccc(C(N)=O)cc1 (centres undefined) [TOLAMOLOL] | 4 | 14 | 0.089 | 4.8 | 150 |  | 
2 | NC[C@H]1O[C@H](O[C@H]2[C@H](O)[C@@H](O[C@H]3O[C@H](CO)[C@@H](O)[C@H](N)[C@H]3O)[C@H](N)C[C@@H]2N)[C@H](N)C[C@@H]1O [TOBRAMYCIN] | 0.23 | 1.6 | 1 | 2.4 | 120 |  | 
3 | COc1cc(NS(C)(=O)=O)ccc1Nc1c2ccccc2nc2ccccc12 [AMSACRINE] | 1.6 | 4.3 | 0.029 | 6.2 | 282 |  | 
4 | CCCC(C)C1(CC)C(=O)NC(=S)NC1=O (centres undefined) [THIOPENTAL] | 1.2 | 8.2 | 0.14 | 2.4 | 120 |  | 
5 | Clc1cccc(Cl)c1N=C1NCCN1 [CLONIDINE] | 3.3 | 4 | 0.56 | 14 |  | 7.6 | 
6 | CC(C)(C)NCC(O)COc1cccc2c1CC(O)C(O)C2 (centres undefined) [NADOLOL] | 1.9 | 2.9 | 0.14 | 11 | 552 |  | 
7 | Cc1ccc(C(=O)c2cc(O)c(O)c([N+](=O)[O-])c2)cc1 [TOLCAPONE] | 0.12 | 1.9 | 0.0012 | 1.1 | 66 |  | 
8 | COc1cc(NC(C)CCCN)c2ncccc2c1 (centres undefined) [PRIMAQUINE] | 4 | 5.8 |  | 11 |  | 7.1 | 
9 | O=C1CCC(N2C(=O)c3ccccc3C2=O)C(=O)N1 (centres undefined) [THALIDOMIDE] | 0.95 | 3.4 | 0.4 | 4.3 | 282 |  | 
10 | COc1ccc2cc1Oc1cc3c(cc1OC)CC[N+](C)(C)[C@H]3Cc1ccc(cc1)Oc1c(OC)c(OC)cc3c1[C@@H](C2)[N+](C)(C)CC3.[I-].[I-] [METOCURINE IODIDE] | 0.4 | 1.2 | 0.65 | 5.6 | 306 |  | 
11 | C=C1CC[C@@]2(O)[C@H]3Cc4ccc(O)c5c4[C@@]2(CCN3CC2CC2)[C@H]1O5 | 8.2 | 15 | 0.65 | 9.1 | 528 |  | 
12 | COc1ccc(CCNCC(O)COc2cccc(C)c2)cc1OC (centres undefined) [BEVANTOLOL] | 0.67 | 5.5 | 0.015 | 2 | 114 |  | 
13 | COc1ccnc(C[S+]([O-])c2nc3ccc(OC(F)F)cc3[nH]2)c1OC (centres undefined) [PANTOPRAZOLE] |  | 2.2 | 0.02 | 1.9 | 114 |  | 0.17
14 | NNc1nncc2ccccc12 [HYDRALAZINE] | 1.5 | 85 | 0.12 | 0.29 | 57.6 |  | 
15 | CCC(C)(C)NCC(O)COc1ccccc1C(=O)CCc1ccccc1 (centres undefined) [DIPRAFENONE] | 1.2 | 11 | 0.017 | 1.9 | 90 |  | 
16 | O=P(O)(O)OC(Cn1cncn1)(Cn1cncn1)c1ccc(F)cc1F [FOSFLUCONAZOLE] | 0.15 | 1.3 | 0.042 | 2 | 126 |  | 
17 | CO/N=C(\C(=O)N[C@@H]1C(=O)N2C(C(=O)O)=CCS[C@H]12)c1csc(N)n1 [CEFTIZOXIME] | 0.2 | 2.1 | 0.72 | 1.6 | 90 |  | 
18 | Cc1ccc(-c2ncc(Cl)cc2-c2ccc(S(C)(=O)=O)cc2)cn1 [ETORICOXIB] | 1.5 | 0.79 | 0.081 | 32 | 1560 |  | 
19 | CCc1nc(N)nc(N)c1-c1ccc(Cl)cc1 [PYRIMETHAMINE] | 0.43 | 0.052 | 0.095 | 140 | 8400 |  | 
20 | CC(CN(C)C)CN1c2ccccc2CCc2ccccc21 (centres undefined) [TRIMIPRAMINE] | 16 | 16 | 0.051 | 17 | 1380 |  | 
21 | COc1cc(CC2c3c(cc(OC)c(OC)c3OC)CC[N+]2(C)CCCOC(=O)CCC(=O)OCCC[N+]2(C)CCc3cc(OC)c(OC)c(OC)c3C2Cc2cc(OC)c(OC)c(OC)c2)cc(OC)c1OC (centres undefined) [DOXACURIUM] | 0.22 | 2.7 | 0.53 | 1.4 | 102 |  | 
22 | CN(C)[C@@H]1C(O)=C(C(N)=O)C(=O)[C@@]2(O)C(O)=C3C(=O)c4c(O)ccc(Cl)c4[C@@H](O)[C@H]3C[C@@H]12 [DEMECLOCYCLINE] | 1.3 | 1.1 | 0.59 | 17 | 720 |  | 
